Experimental data reported in ChEMBL document CHEMBL1138625, “Synthesis and evaluation of novel phenoxypropanolamine derivatives containing acetanilides as potent and selective beta3-adrenergic receptor agonists” (Bioorg Med Chem, 2009).
pEC50: −log10 of the molar value.

Legend:
[1] = molecular target: Beta-3 adrenergic receptor (Homo sapiens) (UniProt P13945)
[2] = molecular target: Beta-1 adrenergic receptor (Homo sapiens) (UniProt P08588); details: CHO
[3] = molecular target: Beta-2 adrenergic receptor (Homo sapiens, UniProt P07550)
Description: Agonist activity at human beta2 adrenergic receptor expressed in CHO cells assessed as cAMP accumulation

[4] = molecular target: Beta-1 adrenergic receptor (Homo sapiens) (UniProt P08588); assay: Agonist activity at human adrenergic receptor expressed in CHO cells assessed as cAMP accumulation
[5] = Oral bioavailability in rat; type: ADME, organism-based; details: in vivo
[6] = test system: Mus musculus; assay: Hypoglycemic activity in diabetic kk mouse assessed as reduction in plasma glucose level at 30 mg/kg, po administered once daily for 4 days by colorimetry; type: functional; set-up: scale not given: the % may be the effect or the level left

Beta-2 adrenergic receptor, sequence (P07550 whole entry): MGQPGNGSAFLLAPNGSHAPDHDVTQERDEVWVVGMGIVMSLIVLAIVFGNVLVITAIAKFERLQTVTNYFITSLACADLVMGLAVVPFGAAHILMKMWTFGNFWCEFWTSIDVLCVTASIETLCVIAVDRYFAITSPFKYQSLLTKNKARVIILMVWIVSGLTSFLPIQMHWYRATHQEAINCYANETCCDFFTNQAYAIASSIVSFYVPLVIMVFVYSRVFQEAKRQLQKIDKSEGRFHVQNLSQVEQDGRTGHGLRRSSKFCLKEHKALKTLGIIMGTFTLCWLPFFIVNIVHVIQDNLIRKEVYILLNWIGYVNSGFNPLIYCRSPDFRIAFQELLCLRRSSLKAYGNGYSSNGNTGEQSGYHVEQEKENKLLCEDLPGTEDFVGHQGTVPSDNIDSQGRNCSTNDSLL
Beta-3 adrenergic receptor (Homo sapiens), sequence (P13945 whole entry, looked up): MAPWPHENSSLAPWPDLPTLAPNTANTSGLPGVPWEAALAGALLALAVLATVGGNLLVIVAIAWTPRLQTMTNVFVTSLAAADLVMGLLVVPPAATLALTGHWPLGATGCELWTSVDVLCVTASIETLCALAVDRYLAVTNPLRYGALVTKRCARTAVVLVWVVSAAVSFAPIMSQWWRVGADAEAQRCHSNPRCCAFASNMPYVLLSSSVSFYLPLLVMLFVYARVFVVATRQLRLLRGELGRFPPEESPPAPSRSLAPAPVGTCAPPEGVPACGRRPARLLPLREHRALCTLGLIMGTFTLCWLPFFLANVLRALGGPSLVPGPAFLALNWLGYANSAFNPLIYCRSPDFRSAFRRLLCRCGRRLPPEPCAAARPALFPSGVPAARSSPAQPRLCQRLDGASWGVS

| Compound | pEC50 [1] | Intrinsic activity [2] | pEC50 [3] | pEC50 [4] | bioavailability [5] [%] | Activity [6] [%] |
| --- | --- | --- | --- | --- | --- | --- |
| CC(Cc1ccc(NC(=O)Cc2nccn2Cc2ccccc2)cc1)NC[C@H](O)COc1ccccc1 (stereo in doubt; 27b) |  |  | < 4.00 |  |  |  |
| O=C(Cc1ccccn1)Nc1ccc(CCNC[C@H](O)COc2cccc3[nH]c(=O)[nH]c23)cc1 |  |  | < 4.00 |  |  |  |
| O=C(Cc1nc2ccccc2n1Cc1ccccc1)Nc1ccc(CCNC[C@H](O)COc2ccccc2)cc1 |  |  | < 4.00 |  |  |  |
| O=C(Cc1nccn1Cc1ccc(Br)cc1)Nc1ccc(CCNC[C@H](O)COc2ccccc2)cc1 | 6.72 | 0.3 | < 4.00 | 7.15 |  |  |
| CS(=O)(=O)Nc1ccc(OC[C@@H](O)CNCCc2ccc(NC(=O)Cc3ccccn3)cc2)cc1 | < 4.00 | 0.01 | < 4.00 | < 4.00 |  |  |
| O=C(Cc1ccccn1)Nc1ccc(CCNC[C@H](O)COc2cccnc2)cc1 |  |  | < 4.00 |  |  |  |
| O=C(Cc1cccc(OCc2ccccc2)n1)Nc1ccc(CCNC[C@H](O)COc2ccccc2)cc1 | 5.60 | 0.12 | < 4.00 | 6.70 |  |  |
| O=C(Cc1nccn1Cc1ccccc1)Nc1ccc(CCNC[C@H](O)COc2ccccc2)cc1 | 6.74 | 0.2 | < 4.00 | 6.89 |  | 43 |
| Cc1cc(C)nc(CC(=O)Nc2ccc(CCNC[C@H](O)COc3ccccc3)cc2)c1 | 6.55 | 0.17 | < 4.00 | 6.51 |  |  |
| O=C(Cc1ccccn1)Nc1ccc(CCNC[C@H](O)COc2ccc(O)cc2)cc1 | 6.54 | 0.14 | < 4.00 | 5.57 | 2 |  |
| CC(Cc1ccc(NC(=O)Cc2nccn2Cc2ccccc2)cc1)NC[C@H](O)COc1ccccc1 (single isomer, unassigned; diastereomer I) |  |  | 7.57 |  |  |  |
| O=C(Cc1ccccn1)Nc1ccc(CCNC[C@H](O)COc2cccc3[nH]c4ccccc4c23)cc1 |  |  | < 4.00 |  |  |  |
| CCCN(C(=O)Cc1nccn1Cc1ccccc1)c1ccc(CCNC[C@H](O)COc2ccccc2)cc1 | 6.30 | 0.01 | < 4.00 | < 4.00 |  |  |
| O=C(Cc1cn(Cc2ccccc2)cn1)Nc1ccc(CCNC[C@H](O)COc2ccccc2)cc1 |  |  | < 4.00 |  |  |  |

Further lines, with some results ahead:

| pEC50 [1] | Intrinsic activity [2] | pEC50 [3] | pEC50 [4] | bioavailability [5] [%] | Compound | Activity [6] [%] |
| --- | --- | --- | --- | --- | --- | --- |
| 5.02 | 0.26 | < 4.00 | 6.29 |  | O=C(Cc1ncc[nH]1)Nc1ccc(CCNC[C@H](O)COc2ccccc2)cc1 |  |
|  |  | < 4.00 |  |  | O=C(Cc1nccn1-c1ccccc1)Nc1ccc(CCNC[C@H](O)COc2ccccc2)cc1 |  |
| 5.89 | 0 | < 4.00 | < 4.00 |  | O=C(Cc1ccccn1)Nc1ccc(CCNC[C@H](O)COc2cccc3[nH]ccc23)cc1 |  |
| 6.57 | 0.13 | < 4.00 | 7.13 |  | O=C(Cc1nccn1Cc1ccc(Cl)cc1)Nc1ccc(CCNC[C@H](O)COc2ccccc2)cc1 |  |
| 6.48 | 0.18 | < 4.00 | 6.41 |  | Cc1cccnc1CC(=O)Nc1ccc(CCNC[C@H](O)COc2ccccc2)cc1 |  |
| 3.92 | 0.11 | < 4.00 | < 4.00 | 27 | O=C(Cc1ccccn1)Nc1ccc(CCNC[C@H](O)COc2ccccc2)cc1 |  |
|  |  | < 4.00 |  |  | O=C(Cc1nccn1Cc1ccc2ccccc2c1)Nc1ccc(CCNC[C@H](O)COc2ccccc2)cc1 |  |
| 6.55 | 0.04 | < 4.00 | < 4.00 |  | CN(C(=O)Cc1nccn1Cc1ccccc1)c1ccc(CCNC[C@H](O)COc2ccccc2)cc1 | 38 |
|  |  | < 4.00 |  |  | O=C(Cc1nccn1Cc1ccccc1)N1CCCc2cc(CCNC[C@H](O)COc3ccccc3)ccc21 |  |
|  |  | < 4.00 |  |  | O=C(Cc1cccc(Cl)n1)Nc1ccc(CCNC[C@H](O)COc2ccccc2)cc1 |  |
